How the values were obtained:
Type in all cases: cell-based, human
HCT116 cells [1] = assay: Cytokinesis blocked micronucleus (CBMN) assay; conditions: RPS27L-depleted HCT116 cells, ADR (1 μM) 24 h
Method: In order to examine DNA damage directly, the comet assay was used next. The comet assay is a single cell gel electrophoresis assay in which damaged DNA migrates to form a “comet tail” that is proportional to the amount of DNA damage (Collins, A. R. (2004) “The comet assay for DNA damage and repair: principles, applications, and limitations” Mol Biotechnol, vol. 26, p. 249-261). Cells were incubated with ADR for 24 h and were harvested and processed for the comet assay. […] We then investigated whether elevated DNA damage has caused chromosome instability. […]
After treatment with ADR, cells were incubated with cytochalasin B (Sigma, 5 μg/ml) for an additional 22 h. […] Fixed cells were dropped onto clean slides and stained with 3 μg/ml Acridine Orange (which differentially stains cytoplasm and nucleus) (Hande, M. P., et al. (1996) “Induction and persistence of cytogenetic damage in mouse splenocytes following whole-body X-irradiation analysed by fluorescence in situ hybridization. II. Micronuclei.” Int J Radiat Biol.; vol. 70(4), p. 375-83; Hande, M. P., et al. (1997) “Induction and persistence of cytogenetic damage in mouse splenocytes following whole-body X-irradiation analysed by fluorescence in situ hybridization. III. Chromosome malsegregation/aneuploidy” Mutagenesis, vol. […] One thousand binucleated cells were scored for each sample.

[2] = test system: p53 and its downstream targets p21, puma and MDM2; assay: Immunoblot of p53 and its targets in control and RPS27L-depleted HCT116 cells; conditions: RPS27L-depleted versus control HCT116 cells
Method: (§1) As RPS27L depletion sensitizes only p53 wild-type cells to DNA damage, the inventors next assessed the effect of RPS27L loss on p53 signaling pathway. The effects of RPS27L depletion on p53 and its downstream targets p21, puma and MDM2 was examined by immunoblot analysis. […] By contrast, p53-dependent activation of Puma and MDM2 were not decreased upon RPS27L loss.
(§2) Cells were harvested and lysed with RIPA buffer (50 mM Tris-HCl, pH7.4, 1 mM EDTA, 150 mM NaCl, 1% Nonidet P-40, 0.5% sodium deoxycholate and proteinase inhibitors). The lysates were clarified by centrifugation at 16,000×g for 15 minutes at 4° C. Protein concentrations were determined with the Bradford Protein Assay Kit (Bio-Rad). 20-50 μg protein samples were separated by SDS-PAGE, transferred onto an Immobilon membrane (Millipore) and blotted with antibodies. Anti-p53 and anti-p21 antibodies were from Santa Cruz; anti-MDM2 and anti-Puma antibodies were from Merck. The rabbit polyconal antibody to RPS27L was raised against a 14 amino acid peptide from human RPS27L (SEQ ID NO: 2: LHPSLEEEKKKHKK).

p53 and p21 = assay: Western blot of p53 and p21 protein levels in HCT116 cells; conditions: ADR (1 μM), 5-FU (375 μM), nutlin-3 (10 μM)
Method: (§3) To investigate whether the p53-induced increase in RPS27L mRNA also gives rise to the increased protein levels, immunoblot analysis of p53 wild-type and p53 null HCT116 cells treated with ADR, 5-FU or nutlin-3, a small molecule MDM2 antagonist that directly activates p53 (Vassilev, L. T., Vu, B. T., et al. (2004) “In vivo activation of the p53 pathway by small-molecule antagonists of MDM2” Science, vol. 303, p. 844-848) was performed. […] To extend this observations to other cell lines and to other p53 stimuli, U2OS (human osteosarcoma cell line) and SH-SY5Y (human neuroblastoma cell line) cells (p53 wild type) as well as Saos-2 cells (human osteosarcoma cell line, p53-deficient) were treated with ADR, etoposide phosphate (VP16®) and 5-FU (FIG. 2B). […] Obviously, 5-FU treatment activates a posttranslational mechanism that causes RPS27L protein downregulation in spite of the increased mRNA expression.
as §2

RPS27L protein [3] = assay: Western blot of RPS27L protein levels in HCT116 cells; conditions: ADR (1 μM), 5-FU (375 μM), nutlin-3 (10 μM)
Method: as §3, §2

RPS27L mRNA = assay: RT-PCR of RPS27L mRNA after drug treatment of HCT116 cells; conditions: p53 wild-type HCT116 cells; ADR (1 μM) or 5-FU (375 μM); not in p53 null cells
Excerpt: FIG. 1A depicts the microarray analysis showing a set of genes whose expression was induced by the DNA damaging agents adriamycin (ADR) and 5-fluorouracil (5-FU) in p53 wild-type HCT116 cells (human colorectal carcinoma cell line containing wild type p53) but not in the p53 null counterpart. In both treatments, RPS27L, together with bona fide p53 targets such as cdkn1a (encodes p21), Pmaid (encodes Noxa) and ccd3 (encodes Puma), was unregulated in a p53-dependent manner. To validate the microarray data, RT-PCR analysis was performed (FIG. 1B).
The human colon carcinoma cell line HCT116 and its p53 knock-out derivate cells were kindly provided by Dr. Bert Vogelstein. HCT116 cells can also be purchased under the ATCC number: CCL 247. The human osteosarcoma cell lines U2OS and Saos-2 can be purchased under the following ATCC numbers: U2OS, ATCC HTB-96; Saos-2, ATCC HTB-85 and SH-SY5Y, ATCC CRL-2266. Cells were grown in DMEM supplemented with 10% fetal bovine serum and penicillin-streptomycin (Invitrogen). Adriamycin, etoposide phosphate (VP16®) and 5-fluorouracil were purchased from Sigma-Aldrich.
All RT-PCR was performed using the Titanium One Step RT-PCR Kit (BD Clontech).

RPS27L protein [4] = assay: Western blot of RPS27L protein in U2OS, SH-SY5Y and Saos-2 cells; conditions: U2OS and SH-SY5Y (p53 wild type), Saos-2 (p53-deficient); VP16 (10 μM), ADR (1 μM), 5-FU (375 μM)
Method: as §3, §2

HCT116 cells [5] = assay: Alkaline single cell gel electrophoresis (comet) assay; conditions: RPS27L-depleted versus control HCT116 cells, ADR 24 h
Method: In order to examine DNA damage directly, the comet assay was used next. […] Cells were incubated with ADR for 24 h and were harvested and processed for the comet assay.
The treated cells were subjected to a single cell gel electrophoresis (comet) assay as described earlier (Poonepalli, A., Balakrishnan, L., et al. (2005), supra) and stained with SYBR green dye. The tail moment of the comets was generated using the Metasystems (Germany) analysis software ‘Comet imager version 1.2’. Fifty randomly chosen comets were analyzed per sample. The extent of DNA damage observed was expressed as tail moment, which corresponded to the fraction of the DNA in the tail of the comet.

p21 = assay: Immunoblot of p21 in U2OS cells with transient RPS27L knockdown; conditions: RPS27L knocked down by transient transfection, ADR (1 μM) 24 hours
Method: as §1, §2

COc1cccc2c1C(=O)c1c(O)c3c(c(O)c1C2=O)C[C@@](O)(C(=O)CO)C[C@@H]3O[C@H]1C[C@H](N)[C@H](O)[C@H](C)O1 [ADR, adriamycin]
micronucleus frequency (HCT116 cells [1]): increased micronucleus frequency
p53-dependent activation of Puma and MDM2 ([2]; ADR (1 μM)): not decreased
effect of RPS27L depletion on ADR-induced p53 activation ([2]; ADR (1 μM) 24 and 48 hours): no significant effect
p21 accumulation in response to ADR ([2]; ADR (1 μM) 24 and 48 hours): significant reduced
p53 and p21 protein (p53 and p21): accumulation of p53 and p21
RPS27L protein level (RPS27L protein [3]): increased RPS27L protein levels
RPS27L mRNA (RPS27L mRNA): induced
RPS27L protein level (RPS27L protein [4]): p53-dependent upregulation of RPS27L protein
DNA damage (comet tail moment) (HCT116 cells [5]): significantly enhanced
p21 protein level (p21): substantial decrease

From US20090137517A1, “SENSITIZING A CELL TO CANCER TREATMENT BY MODULATING THE ACTIVITY OF A NUCLEIC ACID ENCODING RPS27L PROTEIN” (Agency for Science, Technology and Research, priority 2006, published 2009)
